Experimental findings from PubChem BioAssay AID1996 are described below.

In brackets after ≈: the same amount, converted by molar mass. Where only a bound is given, the exact number is not on record here.

For this data set the following is noted: buffer; pH 7.4; 200.0 µM.
For `COc1ccc(C=O)cc1CSc1ccccn1`, the kinetic solubility is 0.0382 mg/mL (≈ 147 µM).
The same measure for `COc1ccc(NC(=O)CN(C)CC(=O)NC2CCC(C)CC2)cc1` (configuration not stated): over 0.0521 mg/mL.
`O=C(O)c1cccc(S(=O)(=O)Nc2ccc(Cc3ccncc3)cc2)c1` yielded a kinetic solubility of over 0.0553 mg/mL.
With `COc1ccc(OC)c(NC(=O)CCCC(=O)NC2CCCCC2)c1` the figure was over 0.0523 mg/mL; with `COc1ccc(NC(=O)Nc2cc(C(C)(C)C)on2)cc1OC`, over 0.0479 mg/mL; with `Cc1ccc(OC(C)C(=O)Nc2ccncc2)cc1` (configuration not stated), 0.0317 mg/mL (≈ 124 µM).
With `Cc1cccc(NC(=O)c2ccc3nccnc3c2)n1` the figure was over 0.0396 mg/mL.
On to `Cc1cc(C)cc(NC(=O)Nc2ccc3c(c2)CCC3)c1`, for which the kinetic solubility was under 0.0003 mg/mL.
The same measure for `Cc1ccc(C)c(OCCCN2CCNCC2)c1.Cl`: 0.0393 mg/mL; for `CCCCC(=O)NC(=O)NC(c1ccccc1)c1ccccc1`: under 0.0003 mg/mL; for `C#CCn1cc(/C=C2\NC(=O)NC2=O)c2ccccc21`: 0.0012 mg/mL (≈ 4.52 µM).
Turning to `CC(C)c1ccc(NC(=O)c2ccccc2NC(=O)C2CCCCC2C(=O)O)cc1` (configuration not stated), the solubility (kinetic) was 0.0553 mg/mL (≈ 135 µM).
The same measure for `Cc1ccccc1C(=O)OC1CCN(C)CC1.Cl`: over 0.0405 mg/mL; for `N#Cc1ccccc1OCC(O)CS(=O)(=O)c1ccccc1` (configuration not stated): over 0.0476 mg/mL; for `CON(C)S(=O)(=O)c1cccc(C(=O)N(CC(=O)Nc2ccccc2C(F)(F)F)Cc2ccco2)c1`: 0.0502 mg/mL (≈ 95.5 µM).
The same measure for `CN(C)c1nc(N)c([N+](=O)[O-])c(N2CCCCCC2)n1`: 0.0397 mg/mL (≈ 142 µM).
As for `O=C1CSC(c2ccccn2)N1c1ccccc1F` (configuration not stated), the solubility (kinetic) was 0.0406 mg/mL (≈ 148 µM).
The same measure for `CC(Oc1cccc(Cl)c1)C(=O)NCc1ccc(S(N)(=O)=O)cc1` (configuration not stated): 0.0533 mg/mL (≈ 145 µM).
The same measure for `O=C(O)c1[nH]c2ccc([N+](=O)[O-])cc2c1-c1ccccc1`: over 0.0423 mg/mL; for `CCN(CC)Cc1oc(-c2ccccc2)cc1C(=O)O`: 0.0322 mg/mL (≈ 118 µM); for `O=C(Nc1nccs1)c1ccc2c(c1)OCO2`: 0.003 mg/mL (≈ 12.1 µM).
With `CCN(CC)CCN(C(=O)/C=C/c1cccs1)c1nc2ccc(Cl)cc2s1.Cl` the figure was under 0.0003 mg/mL.
With `O=C(NCc1nc(-c2ccc(Cl)cc2)no1)c1ccco1`, the kinetic solubility was found to be 0.0094 mg/mL (≈ 31 µM).
The same measure for `O=C(Nc1nc2ccsc2c(=O)s1)c1ccco1`: 0.0073 mg/mL (≈ 26.2 µM); for `CCN1CCCC1CNC(=O)C(=O)NC(C)c1ccccc1` (configuration not stated): over 0.0455 mg/mL.
The same measure for `CCOC(=O)c1cc(S(=O)(=O)N2CCC(C)CC2)cn1C`: 0.0052 mg/mL (≈ 16.5 µM); for `Cc1cccc(NC(=O)c2c(-c3ccccc3)noc2C)n1`: 0.0349 mg/mL (≈ 119 µM); for `C(=N\N1CCN(c2ccccn2)CC1)/c1ccccn1`: over 0.0401 mg/mL.
The same measure for `NC(=O)CN1C(=O)C(=O)N(Cc2ccc(Cl)cc2)C1=O`: over 0.0444 mg/mL.
In the case of `Cn1c(=O)c(C(=O)NCC2CCCO2)c(O)c2ccccc21` (configuration not stated), the kinetic solubility came out at 0.0152 mg/mL (≈ 50.3 µM).
With `O=C(CCCc1ccccc1)Nc1ccccn1` the figure was over 0.036 mg/mL; with `Cc1cc(C)nc(SCC(=O)c2ccc(Cl)cc2)n1`, 0.0335 mg/mL (≈ 114 µM); with `COc1ccc(CCC(C)NCc2ccc(C(F)(F)F)cc2)cc1` (configuration not stated), 0.0305 mg/mL (≈ 90.4 µM).
Molecule `Nc1nc(CCOc2ccc(F)cc2)cs1` came in with a kinetic solubility of 0.0343 mg/mL (≈ 144 µM).
In turn, `CC1CCc2cc(F)ccc2N1C(=O)c1cccs1` (configuration not stated) had a solubility (kinetic) of 0.0308 mg/mL (≈ 112 µM).
`O=C(Nc1cccc2cccnc12)c1ccc(Br)cc1Br`: the solubility (kinetic) was under 0.0004 mg/mL.
Molecule `CC(C)Cn1c(N)c(C(=O)COC(=O)c2cc(S(=O)(=O)N3CCOCC3)ccc2Br)c(=O)n(C)c1=O` yielded a solubility (kinetic) of 0.0079 mg/mL (≈ 13.4 µM).
The same measure for `O=C1CN(S(=O)(=O)c2ccc(F)cc2)c2ccccc2N1`: over 0.0459 mg/mL; for `Cc1cc(C)cc(NC(=O)N2CCc3ccccc3C2)c1`: 0.0013 mg/mL (≈ 4.64 µM).
With `NC(=O)c1ccc(NC(=O)CCC(=O)c2cccs2)cc1` the figure was 0.0446 mg/mL (≈ 148 µM); with `COc1ccc(-c2nc(C(=O)O)cs2)cc1OC`, over 0.0398 mg/mL; with `CC1CCC(NC(=O)CN(C)S(=O)(=O)c2cnc[nH]2)CC1` (configuration not stated), over 0.0472 mg/mL.
On to `COc1ccc(C(=O)N2CCN(c3ccccn3)CC2)cc1[N+](=O)[O-]`, for which the solubility (kinetic) was determined as 0.0495 mg/mL (≈ 145 µM).
In turn, `Cc1ccccc1-c1nc(C#N)c(N2CCCCC2)o1` returned a solubility (kinetic) of 0.0018 mg/mL (≈ 6.73 µM).
`CCC(C)c1ccc(NC(=O)COC(=O)C2CCCC2)cc1` (configuration not stated) displayed a solubility (kinetic) of 0.0088 mg/mL (≈ 29 µM).
The same measure for `Cc1ccc(Nc2nc(N)c(C#N)c(CC#N)c2C#N)cc1`: 0.0016 mg/mL (≈ 5.55 µM); for `N/C(=N\c1nc2ccccc2o1)NC(=O)c1cccc(Cl)c1`: under 0.0002 mg/mL; for `CC(C)CC(OC(=O)c1nsc(Cl)c1Cl)C(=O)NC1CCCC1` (configuration not stated): 0.0224 mg/mL (≈ 59.1 µM).
The same measure for `COc1ccc(NC(=O)COc2ccc(C)cc2)c([N+](=O)[O-])c1`: under 0.0003 mg/mL; for `Cc1nn(CC(=O)N2CCC(C)CC2)c(=O)c2cccn12`: over 0.0433 mg/mL; for `Cc1cc(O)cc(=O)n1C`: over 0.0209 mg/mL.
The same measure for `Cc1cc(C)c(S(=O)(=O)N2CCCC2)c(C)c1`: 0.0304 mg/mL (≈ 120 µM).
